According to ChEMBL document CHEMBL1131654 (Bioorg Med Chem Lett, 1998):

Experiments:
[1] = target: T1, 5-hydroxytryptamine receptor 1B (Homo sapiens, UniProt P28222); settings: Oryctolagus cuniculus; Saphenous vein
Description: 5-hydroxytryptamine 1B receptor agonist potency determined in rabbit saphenous vein contraction model

[2] = target: 5-hydroxytryptamine receptor 1D (Homo sapiens, UniProt P28221); assay: In vitro binding affinity was determined towards cloned human 5-hydroxytryptamine 1D receptor using [3H]5-CT radioligand
[3] = target: T1, 5-hydroxytryptamine receptor 1B; assay: In vitro binding affinity was determined towards cloned human 5-hydroxytryptamine 1B receptor using [3H]5-CT radioligand
[4] = target: T1, 5-hydroxytryptamine receptor 1B; assay: Effective concentration determined by measuring inhibition of forskolin-stimulated c-AMP formation at 5-hydroxytryptamine 1B receptor stably transfected in CHO cell lines; format: functional, cell-based
[5] = target: T1, 5-hydroxytryptamine receptor 1B; assay: 5-HT1B agonist potency was evaluated as effective dose that induced hypothermia in the guinea-pig upon intraperitoneal administration; format: functional, organism-based; settings: Cavia porcellus; target entry is the homologue from another species
[6] = target: T1, 5-hydroxytryptamine receptor 1B; assay: 5-hydroxytryptamine 1B receptor agonist potency was evaluated as effective dose that induced hypothermia in the guinea-pig upon intraperitoneal administration; format: functional, organism-based; settings: Cavia porcellus; target entry is the homologue from another species
[7] = target: T2, 5-hydroxytryptamine receptor 1A (Homo sapiens, UniProt P08908); assay: In vitro binding affinity was determined towards cloned human 5-hydroxytryptamine 1A receptor using [3H]8-OH-DPAT radioligand
T2 sequence (P08908 whole entry): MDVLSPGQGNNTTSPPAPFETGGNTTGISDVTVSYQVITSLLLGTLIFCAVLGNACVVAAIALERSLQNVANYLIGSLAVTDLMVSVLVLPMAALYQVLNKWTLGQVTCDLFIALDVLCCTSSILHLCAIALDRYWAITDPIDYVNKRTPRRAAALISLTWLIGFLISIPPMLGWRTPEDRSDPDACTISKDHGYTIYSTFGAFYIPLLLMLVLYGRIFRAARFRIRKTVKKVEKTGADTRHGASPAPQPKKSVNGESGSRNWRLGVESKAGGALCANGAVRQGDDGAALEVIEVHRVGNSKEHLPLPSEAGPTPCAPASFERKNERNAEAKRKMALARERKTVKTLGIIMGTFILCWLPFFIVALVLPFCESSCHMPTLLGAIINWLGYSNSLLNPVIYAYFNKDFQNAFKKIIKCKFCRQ

T1 sequence (P28222 whole entry): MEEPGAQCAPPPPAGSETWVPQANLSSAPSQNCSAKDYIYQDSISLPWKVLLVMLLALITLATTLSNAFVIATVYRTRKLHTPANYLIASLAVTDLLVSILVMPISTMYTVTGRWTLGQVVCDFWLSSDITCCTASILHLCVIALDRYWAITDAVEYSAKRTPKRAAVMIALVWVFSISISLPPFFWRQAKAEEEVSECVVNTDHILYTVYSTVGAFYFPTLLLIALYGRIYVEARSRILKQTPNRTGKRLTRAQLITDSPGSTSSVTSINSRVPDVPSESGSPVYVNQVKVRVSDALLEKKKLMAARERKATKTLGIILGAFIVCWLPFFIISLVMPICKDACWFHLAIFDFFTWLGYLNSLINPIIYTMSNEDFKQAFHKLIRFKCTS
Sequence of 5-hydroxytryptamine receptor 1D (P28221 whole entry): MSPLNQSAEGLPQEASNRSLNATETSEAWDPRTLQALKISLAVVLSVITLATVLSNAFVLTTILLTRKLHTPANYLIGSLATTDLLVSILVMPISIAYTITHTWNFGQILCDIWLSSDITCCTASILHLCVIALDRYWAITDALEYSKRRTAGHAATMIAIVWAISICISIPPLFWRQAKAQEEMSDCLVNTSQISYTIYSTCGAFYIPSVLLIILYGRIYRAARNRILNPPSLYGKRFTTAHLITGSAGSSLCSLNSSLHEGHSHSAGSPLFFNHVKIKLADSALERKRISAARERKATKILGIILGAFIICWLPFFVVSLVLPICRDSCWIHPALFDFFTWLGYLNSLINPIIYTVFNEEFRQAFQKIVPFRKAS

| Structure (SMILES) | pD2 [1] | Ki [2] | Ki [3] | EC50 [4] | ED50 [5] | ED50 [6] | Ki [7] |
| --- | --- | --- | --- | --- | --- | --- | --- |
| CN(C)CCc1c[nH]c2ccc(C[C@H]3COC(=O)N3)cc12 [ZOLMITRIPTAN] | 6.2 | 0.76 nM | 4.2 nM | 15.7 nM | 3.2 mg/kg | – | – |
| CN(C)CCc1c[nH]c2ccc(CS(=O)(=O)N(C)Cc3ccc(CN(C)S(=O)(=O)Cc4ccc5[nH]cc(CCN(C)C)c5c4)cc3)cc12 | 6.6 | 0.89 nM | 0.64 nM | 0.58 nM | – | 1.3 mg/kg | 17.7 nM |
